Measured values taken from ChEMBL document CHEMBL6087420, “Synthesis and pharmacodynamic evaluation of 2-aminoindole derivatives against influenza A virus in vitro/vivo” (Eur J Med Chem, 2025).
Calls of active or inactive are those of the source. The calls are words filed in the database; no cut-off is given here.

How the values were obtained:
Influenza A virus [1] = assay: Inhibition of influenza A virus infection induced apoptosis in MDCK cells assessed as early apoptotic cells at 100 uM incubated for 36 hrs by AnnexinV-FITC/PI staining based flow cytometry (reference value: 0.96%); assay type: functional; set-up: scale not given: the % may be the effect or the level left
Influenza A virus [2] = assay: Inhibition of influenza A virus infection induced apoptosis in MDCK cells infected with influenza virus assessed as upregulation of Bcl2 incubated for 36 hrs by Western blot analysis; assay type: functional, organism-based
Influenza A virus [3] = assay: Antiviral activity against influenza A virus H1NI (A/Weiss/43) infected in compound pretreated MDCK cells assessed as reduction in viral absorption; assay type: functional, organism-based
Influenza A virus [4] = assay: Inhibition of influenza A virus infection induced apoptosis in MDCK cells infected with influenza virus assessed as early apoptotic cells at 100 uM incubated for 36 hrs by AnnexinV-FITC/PI staining based flow cytometry (reference value: 18.2%); assay type: functional; set-up: scale not given: the % may be the effect or the level left
Influenza A virus [5] = assay: Antiviral activity against influenza A virus H1NI (A/Weiss/43) infected in human A549 cells assessed as reduction in viral titers in supernatants at 0.25 to 100 uM; assay type: functional, organism-based; details: dose 0.25-100 µM
[6] = Selectivity index, ratio of CC50 for dog MDCK cells to EC50 for antiviral activity against Influenza A virus H1NI (A/Virginia/ATCC2/2009) infected in MDCK cells; assay type: toxicity, cell-based; details: read-out: Selectivity Index
Influenza A virus [7] = assay: Antiviral activity against influenza A virus infected in human A549 cells assessed as inhibition of IRF7 expression by qRT-PCR analysis; assay type: functional, organism-based
Influenza A virus [8] = assay: Antiviral activity against influenza A virus infected in A549 cells assessed as decrease in IAV-M2 expression at 25 to 100 uM cells pretreated for 48 hrs followed by infected with virus by green fluorescent labelling based confocal microscopy; assay type: functional, organism-based; details: dose 25-100 µM
Influenza A virus [9] = assay: In vivo antiviral activity against influenza A virus infected in BALB/c mouse assessed as reduction in IFN-gamma mRNA level in lung at 25 to 100 mg/kg measured after 6 dpi; assay type: functional, organism-based; details: dose 25-100 mg/kg
[10] = Toxicity in healthy BALB/c mouse assessed as pathological change in spleen at 25 to 100 mg/kg administered through gavage for 6 days; assay type: organism-based; details: in vivo, po, 144 h, dose 25-100 mg/kg, time 6 day
Influenza A virus [11] = assay: Antiviral activity against influenza A virus infected in human A549 cells assessed as inhibition of IFN-beta expression by qRT-PCR analysis; assay type: functional, organism-based

Structure (SMILES): COc1ccc2c(c1)c(-c1ccccc1)c(NS(C)(=O)=O)n2S(=O)(=O)c1ccc(C)cc1
- Activity (Influenza A virus [1]): 0.89%
- Activity (Influenza A virus [2]): Active
- Activity (Influenza A virus [3]): inactive
- Activity (Influenza A virus [4]): 3.6%
- Activity (Influenza A virus [5]): Active
- selectivity ratio [6]: 51.9
- Activity (Influenza A virus [7]): Active
- Activity (Influenza A virus [8]): Active
- Activity (Influenza A virus [9]): Active
- Activity [10]: Non-toxic
- Activity (Influenza A virus [11]): Active
